The values below are quoted from earlier work in patent US12630504B2, “Phenethylamine derivatives, compositions, and methods of use” (CYBIN IRL LIMITED, priority 2020, dated 2026).

Regarding `NCCc1ccc2c(c1)OCO2` [MDPEA, 3,4-methylenedioxyphenethylamine], the biological activity result (due to extensive first-pass metabolism) is “biologically inactive”. With `COc1cc(CCN)cc(OC)c1OC` [Mescaline, 3,4,5-trimethoxyphenethylamine], the “oral dose at which orally active” value (oral, only at high doses owing to low brain bioavailability) is listed as approximately 300 mg.
